Experimental data published in ChEMBL document CHEMBL1153252, “Anti-human immunodeficiency virus activity and cytotoxicity of derivatized buckminsterfullerenes” (Bioorg Med Chem Lett, 1996).

How the values were obtained:
[1] = Compound was evaluated for the toxicity in human PBM cells; format: functional, cell-based
[2] = Compound was evaluated for the anti-HIV-1 activity in human peripheral blood mononuclear cells infected with HIV-1LA1.; format: functional
[3] = test system: Vero; assay: Compound was evaluated for the toxicity in rapidly dividing Vero cells (African Green monkeys kidney cells); format: functional, cell-based; conditions: Chlorocebus sabaeus

Row | EC50 ([2]; Homo sapiens) | EC50 [2] | Compound | IC50 [1] | IC50 [3]
1 | 6.3 µM | – | O=C(O)CCC(=O)OC1CCC23c4c5c6c7c8c9c%10c%11c%12c%13c%14c%15c%16c%17c%18c(c9c6c6c%18c9c%17c%17c%15c%15c%18c%14c%14c%12c%12c%11c8c(c8c%11c2c2c4c4c(c56)c9c5c4c4c2c2c%11c(c8%12)c%14c%18c2c4c%15c%175)C73C1)C%10C%13%16 (centres undefined) | > 100 µM | > 100 µM
2 | – | 7.7 µM | COC1CC(=O)CC23C4=c5c6c7c8c9c%10c%11c%12c%13c%14c%15c%16c%17c%18c%19c%20c(c%21c%22c%23c(c5c5c6c6c8c%11c8c%11c%12c%12c%14c(c%15%19)c%14c%20c%22c%15c%19c%23c5c(c68)c%19c%11c%12c%14%15)C%2112)C%18C3C1(C4)C(OC)CC(=O)CC%171C(=C9C7)C%16C%10%13 (stereo in doubt) | > 100 µM | > 100 µM
3 | 72.7 µM | – | CN1CC23C4=C5Cc6c7c5c5c8c9c%10c%11c%12c(c2c2c%13c%14c%15c%16c%17c%18c%19c%20c(c6c6c%20c%20c%18c%18c%21c%17c%14c%14c(c%12%13)c%11c%11c9c9c%12c8c7c6c%12c%20c%18c9c%11c%14%21)=C6CC3(C1)C(C2%15)C61CN(C)CC%16%191)C4C5%10 (centres undefined) | > 100 µM | > 100 µM
4 | 2.9 µM | – | O=C(O)CO/N=C1\CCC23c4c5c6c7c8c9c%10c%11c%12c%13c%14c%15c%16c%17c%18c(c9c6c6c%18c9c%17c%17c%15c%15c%18c%14c%14c%12c%12c%11c8c(c8c%11c2c2c4c4c(c56)c9c5c4c4c2c2c%11c(c8%12)c%14c%18c2c4c%15c%175)C73C1)C%10C%13%16 (centres undefined) | > 100 µM | > 100 µM
5 | 2.5 µM | – | O=C(CCCc1ccc(C2(c3ccccc3)C34c5c6c7c8c9c%10c(c%11c%12c3c3c5c5c%13c6c6c7c7c9c9c%14c%10c%10c%11c%11c%12c%12c3c3c5c5c%13c%13c6c6c7c9c7c9c%14c%10c%10c%11c%11c%12c3c3c5c5c%13c6c7c6c9c%10c%11c3c56)C824)cc1)NC(CO)(CO)CO (centres undefined) | > 100 µM | > 100 µM
6 | 0.9 µM | – | COC1C/C(=N\OCC(=O)O)CC23c4c5c6c7c8c9c(c%10c%11c2c2c4c4c%12c5c5c6c6c8c8c%13c9c9c%10c%10c%11c%11c2c2c4c4c%12c%12c5c5c6c8c6c8c%13c9c9c%10c%10c%11c2c2c4c4c%12c5c6c5c8c9c%10c2c45)C713 (centres undefined) | > 100 µM | > 100 µM

Second part, the molecule before the results:

Row | Compound | EC50 ([2]; Homo sapiens) | EC50 [2] | IC50 [1] | IC50 [3]
7 | OC1CCC23CC4=c5c6c7c8c9c%10c%11c%12c%13c%14c%15c%16c%17c(c-8c8c%18c%17c%17c(c%19c%20c%21c%22c%23c%24c%25c%26c%27c%28c(c5c(c6%10)c5c%28c%25c(c%13c%24c%14c%22c%16c%17%21)c%115)CC%27=C(C%20C%23%26)C%192C1)C%18C3C41CC(O)CCC871)C9%15%12 (centres undefined) | 17.6 µM | – | > 100 µM | > 100 µM
8 | c1ccc(C2(c3ccc4c(c3)OCCOCCOCCOCCOCCO4)C34C5=C6C7=C8Cc9c%10c8c8c%11c%12c%13c%14c%15c(c6c6c%16c%17c(c%18c%19c3c(c3c9c9c%20c%10c%11c%10c%11c%12c%12c%14c(c%15%16)c%14c%17c%15c%18c%16c%19c3c9c3c%16c9c%15c%14c%12c%11c9c3c%20%10)C5)C642)C7C8%13)cc1 (centres undefined) | 137 µM | – | > 100 µM | > 100 µM
9 | CC1C=CC(COC(=O)CCC(=O)O)C23c4c5c6c7c8c9c%10c%11c%12c%13c%14c%15c%16c%17c%18c(c9c6c6c%18c9c%17c%17c%15c%15c%18c%14c%14c%12c%12c%11c8c(c8c%11c2c2c4c4c(c56)c9c5c4c4c2c2c%11c(c8%12)c%14c%18c2c4c%15c%175)C713)C%10C%13%16 (centres undefined) | 2.2 µM | – | > 100 µM | > 100 µM
10 | COC1CC(=O)CC23C4=c5c6c7c8c9c%10c%11c%12c%13c%14c%15c%16c%17c%18c%19c%20c(c%21c%22c%23c(c5c5c6c6c8c%11c8c%11c%12c%12c%14c(c%15%19)c%14c%20c%22c%15c%19c%23c5c(c68)c%19c%11c%12c%14%15)C%2112)C%18C3C1(C4)C(OC)CC(=O)CC%171C(=C9C7)C%16C%10%13 (single isomer, unassigned; isomer A) | – | > 100 µM | – | –
11 | O=C(O)CO/N=C1\C=CC23c4c5c6c7c8c9c%10c%11c%12c%13c%14c%15c%16c%17c%18c(c9c6c6c%18c9c%17c%17c%15c%15c%18c%14c%14c%12c%12c%11c8c(c8c%11c2c2c4c4c(c56)c9c5c4c4c2c2c%11c(c8%12)c%14c%18c2c4c%15c%175)C73C1)C%10C%13%16 (centres undefined) | 7.3 µM | – | > 100 µM | 33.9 µM
12 | Cc1cn([C@H]2C[C@H](N=[N+]=[N-])[C@@H](CO)O2)c(=O)[nH]c1=O [ZIDOVUDINE] | 0.004 µM | – | > 100 µM | –
13 | O=C(O)CCC(=O)NCCc1ccc(C2(c3ccc(CCNC(=O)CCC(=O)O)cc3)C34c5c6c7c8c9c5c5c%10c%11c%12c(c%13c%14c%15c%16c%17c%18c%19c%20c%21c%22c(c-%13c3c6c%22c3c7c6c7c%13c%22c%23c%24c(c9c5c5c%11c9c(c%15%12)c%16c%11c%18c(c%13c%19c7c%213)c%23c%11c9c%245)C86%22)C%14C%20%17)C%1024)cc1 (centres undefined) | 7.3 µM | – | > 100 µM | > 100 µM
14 | CC12CCC/C(=N\OCC(=O)O)C1C13c4c5c6c7c8c9c%10c%11c%12c%13c%14c%15c(c6c6c4c4c%16c%17c%18c(c%19c%20c1c5c8c1c%20c5c%19c8c%18c%18c%19c%17c%17c4c6c%15c4c%14c6c%12c%12c%14c%11c(c91)c5c%14c8c%18c%12c6c%19c4%17)C%1623)C7C%10%13 (centres undefined) | 21.7 µM | – | > 100 µM | > 100 µM
